Test results reported in patent US20070117770A1, “Human ribosomal DNA (rDNA) and ribosomal RNA (rRNA) nucleic acids and uses thereof” (Cylene Pharmaceuticals, Inc., priority 2005, published 2007).

Tests used:
nucleolin/6183NT = biological target: T1, nucleolin/6183NT (Homo sapiens, UniProt P19338); assay: EMSA, interference with nucleolin/nucleic acid ligand interaction; type: binding; parameters: key to Activity of Compound A-1 (relative interference), ligand 6183NT: +: least interference by compound A-1; ++++: greatest interference by compound A-1
T1 construct: without the N-terminal acidic stretches domain
T1 sequence (P19338 284-710 limits assumed): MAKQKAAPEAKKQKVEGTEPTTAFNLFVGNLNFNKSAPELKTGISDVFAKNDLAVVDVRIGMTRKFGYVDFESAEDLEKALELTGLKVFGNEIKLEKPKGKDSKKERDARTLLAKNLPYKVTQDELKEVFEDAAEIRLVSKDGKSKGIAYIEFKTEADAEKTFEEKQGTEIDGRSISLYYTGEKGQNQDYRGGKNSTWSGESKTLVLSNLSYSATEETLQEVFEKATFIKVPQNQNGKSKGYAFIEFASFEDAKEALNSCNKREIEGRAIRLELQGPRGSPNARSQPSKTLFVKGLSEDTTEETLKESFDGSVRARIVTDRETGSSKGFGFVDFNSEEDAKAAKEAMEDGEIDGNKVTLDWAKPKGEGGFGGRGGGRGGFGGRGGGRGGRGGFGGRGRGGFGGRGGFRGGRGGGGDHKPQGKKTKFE
Method: (§1) The following assays assessed effects of compounds on interactions between nucleolin and nucleic acid ligands capable of forming quadruplex (QP) and hairpin (HP) secondary structures. Nucleic acid ligands tested were a cMyc QP DNA having nucleotide sequence 5′-[…]-3′ (SEQ ID NO: 176) and a HP pre-rRNA region to which nucleolin binds, having the sequence 5′-[…]-3′ (SEQ ID NO: 177). In the assays, recombinant nucleolin (˜250 nM), which was fused to maltose binding protein and had the sequence under accession number NM_005381 without the N-terminal acidic stretches domain, was incubated with each of the two ^32P-labeled nucleic acid ligands (10 or 250 nM). Nucleolin and the nucleic acid ligand were incubated in the presence or absence of a test compound of Formula A-1, B-1, C-6 or C-7 in an incubation buffer (12.5 mM Tris, pH 7.6, 60 mM KCl, 1 mM MgCl2, 0.1 mM EDTA, 1 mM DTT, 5% glycerol, 0.1 mg/ml BSA) for 30 minutes at room temperature. Structures for A-1 and B-1 are shown above and structures for C-6 and C-7 are shown hereafter: [drawing 17] […]
(§2) The assay also was conducted in a filter-binding format. […] Radioactivity was assayed with MicroBeta scintillation counter (Perkin Elmer). Binding curves were constructed and apparent Kd's and Bmax's for the complexes were calculated using the GraphPad Prizm software program (GraphPad Software). […]

nucleolin/1196NT = biological target: T2, nucleolin/1196NT (Homo sapiens, UniProt P19338); assay: as above; type: binding; parameters: key to Activity of Compound A-1 (relative interference), ligand 1196NT: +: least interference by compound A-1; ++++: greatest interference by compound A-1
T2 construct: without the N-terminal acidic stretches domain
T2 sequence (P19338 284-710 limits assumed): as above
Method: as §1, §2

[1] = tested on: fibrillarin in A549 cells; assay: Cell fibrillarin localization (immunofluorescence); type: cell-based; conditions: protocol as for nucleolin
Method: An assay was conducted to determine the effect of ribosomal nucleic acid interacting compounds on cell nucleolin location. In these studies, A549 cells were plated in borosilicate chamber slides. The cells were treated with 10 uM compound A-1 the next day for two hours, washed with phosphate buffered saline, fixed for 10 minutes in 4% paraformaldehyde, permeabilized for 5 minutes in a 1:1 ethanol:acetone mix, incubated with a 1:100 dilution of an anti-nucleolin monoclonal antibody (catalog no. RDI-NUCLEOLabm; Research Diagnostics, Inc.) in 5% donkey serum, followed by incubation with a 1:100 diluted TRITC-labeled secondary anti-mouse antibody and observed under a fluorescence microscope (e.g., Olympus) in the TRITC channel at 600× magnification. […] Accordingly, nucleolin was redistributed from the nucleolus to the nucleoplasm in cells treated with a compound tested in the assay.
Another assay was conducted to determine the effect of ribosomal nucleic acid interacting compounds on cell fibrillarin location. These studies were conducted using a protocol similar to that described in the preceding paragraph, except an antibody that specifically bound to fibrillarin (catalog no. ab5821; Novus Biologicals, Inc.) was utilized.

[2] = biological target: T3, nucleolin/nucleic acid ligand (Homo sapiens, UniProt P19338); assay: EMSA, interference with nucleolin/nucleic acid ligand interactions (ligands derived from human ribosomal DNA); type: binding
T3 construct: without the N-terminal acidic stretches domain
T3 sequence (P19338 284-710 limits assumed): as above
Method: The following assays assessed effects of compounds on interactions between nucleolin and nucleic acid ligands capable of forming quadruplex (QP) and hairpin (HP) secondary structures. Nucleic acid ligands tested were a cMyc QP DNA having nucleotide sequence 5′-[…]-3′ (SEQ ID NO: 176) and a HP pre-rRNA region to which nucleolin binds, having the sequence 5′-[…]-3′ (SEQ ID NO: 177). In the assays, recombinant nucleolin (˜250 nM), which was fused to maltose binding protein and had the sequence under accession number NM_005381 without the N-terminal acidic stretches domain, was incubated with each of the two ^32P-labeled nucleic acid ligands (10 or 250 nM). Nucleolin and the nucleic acid ligand were incubated in the presence or absence of a test compound of Formula A-1, B-1, C-6 or C-7 in an incubation buffer (12.5 mM Tris, pH 7.6, 60 mM KCl, 1 mM MgCl2, 0.1 mM EDTA, 1 mM DTT, 5% glycerol, 0.1 mg/ml BSA) for 30 minutes at room temperature. Structures for A-1 and B-1 are shown above and structures for C-6 and C-7 are shown hereafter: [drawing 17] The resulting complexes were separated on a 6% DNA retardation gel using 0.5× TBE with 20 mM KCl as a running buffer (i.e., electrophoresis mobility shift assay (EMSA)).
The assay also was conducted using nucleic acid ligands derived from human ribosomal DNA. Sequences of these nucleic acids are shown in the preceding example. […]

[3] = tested on: mixed-parallel quadruplex structure; conditions: cited from earlier work
A549 cells = assay: Cell localization assay (fluorescence microscope); type: cell-based; conditions: 2 uM, one hour or two hours
Method: A cell localization assay was utilized to determine cell localization for compounds that interacted with rRNA. In these studies, A549 cells were plated in borosilicate chamber slides. The cells were treated with 2 uM compound A-1 the next day for one hour or two hours, washed with PBS, fixed for 10 min in 4% paraformaldehyde and observed under a fluorescence microscope (Olympus) in the Ex360 nm/Em548 nm channel at 600× magnification. […] Accordingly, a compound tested in the assay was localized in cell nucleoli.

[4] = tested on: cellular DNA or RNA in A549 cells; assay: Cellular target study, RNase A or DNase I treatment of compound-treated cells; type: cell-based; conditions: 2 uM
Method: To determine the cellular target of rRNA-interacting compounds, a study was conducted to ascertain whether the compounds could select for cellular DNA or RNA. In these studies A549 cells were plated in borosilicate chamber slides. The cells were treated with 2 uM compound A-1 the next day for one hour or two hours, washed with PBS, fixed for 10 min in 4% paraformaldehyde, permeabilized for 5 min in 1:1 ethanol:acetone mix, treated with 2.5 ug/mL of RNase A or 340 Kunitz units/mL of DNase I and observed under a fluorescence microscope (Olympus) in the Ex360 nm/Em548 nm channel at 600× magnification. […] Accordingly, a compound tested in the assay interacted with RNA preferentially over DNA in cells.

nucleolin/8749NT = biological target: T4, nucleolin/8749NT (Homo sapiens, UniProt P19338); assay: EMSA, interference with nucleolin/nucleic acid ligand interaction; type: binding; parameters: key to Activity of Compound A-1 (relative interference), ligand 8749NT: +: least interference by compound A-1; ++++: greatest interference by compound A-1
T4 construct: without the N-terminal acidic stretches domain
T4 sequence (P19338 284-710 limits assumed): as above
Method: as §1, §2

CN1CCCC1CCNC(=O)c1cn2c3c(c(N4CCC(c5cnccn5)C4)c(F)cc3c1=O)Oc1cc3ccccc3cc1-2 (stereo not drawn) [Compound A-1]
Activity of Compound A-1 (relative interference), ligand 6183NT (nucleolin/6183NT): +
IC50 (nucleolin/6183NT; ligand 6183NT, read-out: IC50, concentration of Compound A-1 required to dissociate half of the complexed nucleic acid ligand and nucleolin protein): 3 µM
Activity of Compound A-1 (relative interference), ligand 1196NT (nucleolin/1196NT): +
IC50 (nucleolin/1196NT; ligand 1196NT, read-out: IC50, concentration of Compound A-1 required to dissociate half of the complexed nucleic acid ligand and nucleolin protein): 3 µM
fibrillarin localization in treated cells [1]: caused redistribution of fibrillarin
interference with nucleolin/nucleic acid ligand interactions [2]: interfered with nucleolin/nucleic acid ligand interactions
preferred quadruplex structure in competition assays [3]: interact preferentially with a mixed-parallel quadruplex structure
cell localization judged by fluorescence intensity (A549 cells): accumulated in the nucleoli, as well as the cytoplasm/perinuclear space
effect of RNase treatment on nucleolar staining by the drug ([4]; 2.5 ug/mL RNase A): significantly reduced nucleolar staining
effect of DNase I treatment on compound localization ([4]; 340 Kunitz units/mL DNase I): minimal effect
Activity of Compound A-1 (relative interference), ligand 8749NT (nucleolin/8749NT): +
IC50 (nucleolin/8749NT; ligand 8749NT, read-out: IC50, concentration of Compound A-1 required to dissociate half of the complexed nucleic acid ligand and nucleolin protein): 10 µM
